Experimental data from patent publication US10441681B2, “Materials and methods for nerve grafting” (University of Florida Research Foundation, Inc., priority 2001, dated 2019).
Entries after “also recorded” stand apart in the source; their conditions may differ.

Key:
Schwann cell cultures = assay: Treatment of isolated Schwann cell cultures (toxicity); type: cell-based
[1] = tested on: embryonic chick DRG neurons; assay: Cryoculture assay of nerve explant cultures (predegeneration); type: cell-based; settings: nerves cultured 2 days, 2% serum, in the presence of GM6001 (50 μM)
MMP = assay: In situ zymography of nerve explants (net gelatinolytic activity); type: biochemical, rat; settings: nerves cultured 2-day, 2% serum in the presence of GM6001
Procedure: In the control condition, the MMP inhibitor EDTA (30 mM) was included in the reaction buffer. After incubation for 24 h at 37° C., the sections were rinsed with PBS and fixed with 4% paraformaldehyde in phosphate buffer. The sections were rinsed with water and mounted using Citifluor.

SMILES: CNC(=O)[C@H](Cc1c[nH]c2ccccc12)NC(=O)[C@@H](CC(=O)NO)CC(C)C [GM6001]
- toxicity (Schwann cell cultures): very low toxicity
- increase in mean neurite length over uncultured control nerves [1]: 14%
- gelatinolytic activity in nerve explants (MMP): nearly undetectable; also recorded: markedly decreased
